Assay results taken from US20220168431A1, “METHODS OF TREATING CANCER USING TRIMETAZIDINE-BASED COMPOUNDS” (IMBRIA PHARMACEUTICALS, INC., priority 2019, published 2022).
Several values for one entry are separate records, joined by “and”; a condition that tells them apart may be missing. Equal entries are not always repeated. Each block holds one molecule with its values, some of them ahead of it.

Key:
[1] = Stability of CV-8972 in aqueous solution at different concentrations and pH; format: physicochemical
Description: The stability of CV-8972 was analyzed. Aqueous samples containing CV-8972 at different concentrations and pH were incubated for various periods and analyzed.
Form A of CV-8972 were analyzed for stability in aqueous solution. Aqueous samples containing CV-8972 at different concentrations and pH were incubated for various periods and analyzed.

[2] = tested on: isolated hearts after ischemia-reperfusion; assay: Ischemia-reperfusion (IR) method, cardiac function (LVDP); format: in vivo, mice
Description: (§1) FIG. 38 is a schematic of the ischemia-reperfusion (IR) method used to analyze the effects of compositions of the invention on coronary flow, cardiac function, and infarct size. […] At 20 minutes, ischemia was induced, and coronary flow was analyzed. At 50 minutes, reperfusion was initiated to restore blood flow. At 170 minutes, coronary flow and cardiac function was analyzed, and then the hearts were preserved, sectioned, and infarct size was measured by triphenyltetrazolium chloride (TTC) staining. FIG. 40 is graph of left ventricular developed pressure (LVDP) after IR. Blue bars indicate LVDP at 20 minutes, and orange bars indicate LVDP at 170 minutes.

[3] = tested on: isolated hearts after ischemia-reperfusion; assay: Ischemia-reperfusion (IR) method, infarct size by TTC staining; format: in vivo, mice; details: result in words
Description: as §1, with “staining. […]” for “staining.”, “42” for “40”, “infarct size” for “left ventricular developed pressure (LVDP)”, “TR.” for “IR. Blue bars indicate LVDP at 20 minutes, and orange bars indicate LVDP at 170 minutes.”

[4] = tested on: isolated hearts after ischemia-reperfusion; assay: Ischemia-reperfusion (IR) method, coronary flow; format: in vivo, mice
Description: FIG. 38 is a schematic of the ischemia-reperfusion (IR) method used to analyze the effects of compositions of the invention on coronary flow, cardiac function, and infarct size. […] At 20 minutes, ischemia was induced, and coronary flow was analyzed. At 50 minutes, reperfusion was initiated to restore blood flow. At 170 minutes, coronary flow and cardiac function was analyzed, and then the hearts were preserved, sectioned, and infarct size was measured by triphenyltetrazolium chloride (TTC) staining. FIG. 39 is a graph of coronary flow of after IR.

[5] = Stability of CV-8972 forms in various solvents, X-ray powder diffraction; format: physicochemical; details: batch 289-MBA-15-A (form B)
Description: The stability of CV-8972 was analyzed.
Samples from batch 289-MBA-15-A (containing form B) were added to various solvents, incubated under various conditions, and analyzed by X-ray powder diffraction.
Samples from batch 289-MBA-16 (containing forms A and B) were added to various solvents, incubated under various conditions, and analyzed by X-ray powder diffraction.
Samples from batch S-18-0030513 (containing form A) were added to various solvents, incubated under various conditions, and analyzed by X-ray powder diffraction.

Retention Time 5.6 (CV-8972 peak) ([1]; 2 mg/mL pH 6 (Form A), 1 hrs, measured pH 6.1): 97.22 | Retention Time 5.6 (CV-8972 peak) ([1]; 2 mg/mL pH 6 (Form A), 4 hrs, measured pH 6.1): 97.01 | Retention Time 5.6 (CV-8972 peak) ([1]; 2 mg/mL pH 6 (Form A), 6 hrs, measured pH 6.1): 96.51 | Retention Time 5.6 (CV-8972 peak) ([1]; 2 mg/mL pH 7 (Form A), 1 hrs, measured pH 6.8): 95.06 | Retention Time 5.6 (CV-8972 peak) ([1]; 2 mg/mL pH 7 (Form A), 4 hrs, measured pH 6.7): 93.7 | Retention Time 5.6 (CV-8972 peak) ([1]; 2 mg/mL pH 7 (Form A), 6 hrs, measured pH 6.7): 92.12 | Retention Time 5.6 (CV-8972 peak) ([1]; 2 mg/mL pH 7 (Form A), 22 hrs, measured pH 6.8): 91.07 | Retention Time 5.6 (CV-8972 peak) ([1]; 10 mg/mL pH 6 (Form A), 1 hrs, measured pH 6.8): 93.43 | Retention Time 5.6 (CV-8972 peak) ([1]; 10 mg/mL pH 6 (Form A), 4 hrs, measured pH 6.8): 91.82 | Retention Time 5.6 (CV-8972 peak) ([1]; 10 mg/mL pH 6 (Form A), 6 hrs, measured pH 6.7): 91.8 | Retention Time 5.6 (CV-8972 peak) ([1]; 10 mg/mL pH 6 (Form A), 22 hrs, measured pH 6.7): 89.66 | Retention Time 5.6 (CV-8972 peak) ([1]; 10 mg/mL pH 7 (Form A), 1 hrs, measured pH 7.2): 89.05 | Retention Time 5.6 (CV-8972 peak) ([1]; 10 mg/mL pH 7 (Form A), 4 hrs, measured pH 7.1): 86.8 | Retention Time 5.6 (CV-8972 peak) ([1]; 10 mg/mL pH 7 (Form A), 6 hrs, measured pH 7.1): 84.79
SMILES: COc1ccc(CN2CCN(CCOC(=O)c3cccnc3)CC2)c(OC)c1OC.Cl.Cl.Cl [276-MBA-172]

Retention Time 5.6 (CV-8972 peak) ([1]; 2 mg/mL pH 6 (Form B), 1 hrs, measured pH 6.9): 95.1 | Retention Time 5.6 (CV-8972 peak) ([1]; 2 mg/mL pH 6 (Form B), 4 hrs, measured pH 6.8): 92.45 | Retention Time 5.6 (CV-8972 peak) ([1]; 2 mg/mL pH 6 (Form B), 6 hrs, measured pH 6.8): 90.65 | Retention Time 5.6 (CV-8972 peak) ([1]; 2 mg/mL pH 6 (Form B), 22 hrs, measured pH 6.7): 89.15 | Retention Time 5.6 (CV-8972 peak) ([1]; 2 mg/mL pH 7 (Form B), 1 hrs, measured pH 6.6): 95.46 | Retention Time 5.6 (CV-8972 peak) ([1]; 2 mg/mL pH 7 (Form B), 4 hrs, measured pH 6.5): 93.92 | Retention Time 5.6 (CV-8972 peak) ([1]; 10 mg/mL pH 6 (Form B), 1 hrs, measured pH 6.1): 94.81 | Retention Time 5.6 (CV-8972 peak) ([1]; 10 mg/mL pH 6 (Form B), 4 hrs, measured pH 6): 94.69 | Retention Time 5.6 (CV-8972 peak) ([1]; 10 mg/mL pH 6 (Form B), 6 hrs, measured pH 5.9): 94.39 | Retention Time 5.6 (CV-8972 peak) ([1]; 10 mg/mL pH 6 (Form B), 22 hrs, measured pH 5.9): 93.93 | Retention Time 5.6 (CV-8972 peak) ([1]; 10 mg/mL pH 7 (Form B), 1 hrs, measured pH 7.4): 86.18 | Retention Time 5.6 (CV-8972 peak) ([1]; 10 mg/mL pH 7 (Form B), 4 hrs, measured pH 7.4): 82.36 | Retention Time 5.6 (CV-8972 peak) ([1]; 10 mg/mL pH 7 (Form B), 6 hrs, measured pH 7.3): 79.37
SMILES: COc1ccc(CN2CCN(CCOC(=O)c3cccnc3)CC2)c(OC)c1OC.Cl.Cl.Cl [289-MBA-15-A]

SMILES: COc1ccc(CN2CCNCC2)c(OC)c1OC [TMZ, trimetazidine]
LVDP × HR ([2]; after 2h reperfusion, group MEAN): 6.82E+03 | LVDP × HR ([2]; after 2h reperfusion, individual hearts): 2.52E+03 and 5.15E+03 and 5.28E+03 and 4.49E+03 and 3.24E+03 and 4.31E+03 and 9.11E+03 and 1.30E+04 and 6.44E+03 and 1.77E+04 | LVDP × HR ([2]; pre-ischemia, group MEAN): 1.68E+04 | LVDP × HR ([2]; pre-ischemia, individual hearts): 1.83E+04 and 2.31E+04 and 1.08E+04 and 1.77E+04 and 2.33E+04 and 1.26E+04 and 9.82E+03 and 1.01E+04 and 1.57E+04 and 2.36E+04 | cardiac function after IR ([2]; result in words): prevented a decline in cardiac function | infarct size after IR [3]: decreased infarct size | CF170/CF20 ([4]; group MEAN, ratio 170 minutes to 20 minutes): 4.02E+01 ul/m1 | CF170/CF20 ([4]; ratio of flow at 170 minutes to flow at 20 minutes, individual hearts, TMZ 20 μM, TNF 2 μM each, TNS 20 μM each): 2.42E+01 ul/m1 and 5.87E+01 ul/m1 and 3.57E+01 ul/m1 and 3.37E+01 ul/m1 and 5.21E+01 ul/m1 and 2.73E+01 ul/m1 and 2.60E+01 ul/m1 and 6.39E+01 ul/m1

XRPD results ([5]; EtOH, CC from 60° C.): Form C + minor | XRPD results ([5]; no solvent, 100° C., 20 minutes): Form B, shifted
SMILES: COc1ccc(CN2CCN(CCOC(=O)c3cccnc3)CC2)c(OC)c1OC [CV-8972, 2-(4-(2,3,4-trimethoxybenzyl)piperazin-1-yl)ethyl nicotinate]
